Data: patent publication US8129357B2, “Method of making and using an adenosine analogue” (Academia Sinica, priority 2006, dated 2012)
“Also recorded” adds a separate entry of the source.

Key:
A2A-R = target: T1, A2A-R (Rattus norvegicus, UniProt P30543); assay: Cellular cAMP content of ST14A cells; type: cell-based; conditions: for intracellular cAMP level: 20 min at RT, CGS21680 10 μM, T1-C 10 μM, T1-11 26.8 μM
T1 construct: treating ST14A cells (Ehrlich, et al. (2001)) with either T1-C or T1-11 also elevated the intracellular cAMP level; endogenous in cells; host or cells: ST14A striatal progenitor cell line
T1 sequence (P30543 whole entry): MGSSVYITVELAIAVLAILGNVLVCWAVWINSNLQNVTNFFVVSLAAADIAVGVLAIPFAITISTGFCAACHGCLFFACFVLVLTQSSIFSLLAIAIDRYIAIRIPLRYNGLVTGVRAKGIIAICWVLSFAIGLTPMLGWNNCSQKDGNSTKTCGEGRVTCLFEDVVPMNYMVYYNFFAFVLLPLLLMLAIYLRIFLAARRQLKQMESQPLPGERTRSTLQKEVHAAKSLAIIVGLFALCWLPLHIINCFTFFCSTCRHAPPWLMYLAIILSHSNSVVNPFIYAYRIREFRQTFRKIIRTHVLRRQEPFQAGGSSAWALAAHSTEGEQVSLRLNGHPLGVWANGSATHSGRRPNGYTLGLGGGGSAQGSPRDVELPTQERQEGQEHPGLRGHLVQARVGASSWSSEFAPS

BV2 cells = assay: LPS-evoked iNOS induction and NO production in BV2 cells; type: cell-based
R6/2 mice [1] = assay: Survival / lifespan of R6/2 mice; type: in vivo, mouse; conditions: for lifespan of R6/2 mice: drinking water from the age of 4 weeks, T1-C 0.5 mg/mL, T1-11 0.05 mg/mL; for mean survival time: mean±SEM, n=7~8, T1-C 0.5 mg/mL, T1-11 0.05 mg/mL in drinking water, control 94.9±2.5
Body weight of R6/2 mice = type: in vivo, mouse; conditions: drinking water from the age of 4 weeks, T1-C 0.5 mg/mL, T1-11 0.05 mg/mL
PC12 cells = assay: MTT assay: protection of serum-deprived PC12 cells from apoptosis; type: cell-based, rat; conditions: 24 h treatment
Experimental: PC12 cells purchased from American Type Culture Collection (ATCC, Manassas, Va., USA) were maintained in Dulbecco's Modified Eagle Medium (DMEM) supplemented with 10% horse serum and 5% fetal bovine serum and incubated in a CO2 incubator (5%) at 37° C. The striatal progenitor cell line (ST14A) was obtained from Dr. E. Cattaneo (University of Milano, Italy) and was maintained in an incubation chamber with 10% CO2-90% air at 33° C. as described previously (Ehrlich, et al. (2001)).
PC12 cells were serum-deprived by three washes of phosphate buffered saline (PBS) and resuspended in DMEM. The suspended cells were plated on 96-well plates (1×10^4 cells/well) and treated with the indicated reagent(s). After treatment for 21 h, 3-(4,5-dimethylthiazol-2-yl)-2,5-diphenyl tetrazolium bromide (MTT) was added to the medium (0.5 mg/mL) and incubated at 37° C. for another 3 h. After discarding the medium, 100 μl dimethyl sulfoxide (DMSO) was then applied to each well to dissolve the formazan crystals and the absorbances at 570 and 630 nm in each well were measured on a micro-enzyme linked immunosorbent assay (ELISA) reader.

R6/2 mice [2] = assay: Rotarod performance (motor coordination) in R6/2 mice; type: in vivo, mouse; conditions: drinking water from the age of 4 weeks, T1-C 0.5 mg/mL, T1-11 0.05 mg/mL
Description: Male R6/2 mice and littermate controls were mated to female control mice (B6CBAFI/J). Mice were obtained from Jackson Laboratories, Bar Harbor, Me., USA. Offspring were identified by the PCR genotyping technique of genomic DNA extracted from tail tissues using primers located in the transgene (5′-[…]-3′ (SEQ ID NO: 1) and 5′-[…]-3′ (SEQ ID NO: 2)) to ensure that the number of CAG repeats remained approximately 150. In total, 67 R6/2 transgenic mice were used in this study. Animals were housed at the Institute of Biomedical Sciences Animal Care Facility under a 12-h light/dark cycle. Daily injections of the indicated reagent were given between 13:00 and 18:00. Body weights of mice were recorded once daily, prior to diet administration. Animal experiments were performed under protocols approved by the Academia Sinica Institutional Animal Care and Utilization Committee, Taiwan.
Motor coordination was assessed using a rotarod apparatus (UGO BASILE, Comerio, Italy) at a constant speed (12 rpm) over the period of 2 min (Carter, et al. (1999)). All mice were trained for 2 days at the age of 6 weeks to allow them to become acquainted with the rotarod apparatus. Animals were then tested three times per week from the ages of 7 to 12 weeks. For each test, animals were placed in the apparatus before initiation of rotation. Latency to falling was automatically recorded. […]

[3] = tested on: primary astrocytes from wildtype (WT) and R6/2-J2 mice; assay: LPS-induced iNOS expression and NO production in primary astrocytes; type: cell-based, mouse; conditions: primary astrocytes from WT and R6/2-J2 mice
Experimental: Primary astrocytes were purified from neonatal (1-2-day old) brains of R6/2 HD mice (Mangiarini, L., et al., Exon 1 of the HD gene with an expanded CAG repeat is sufficient to cause a progressive neurological phenotype in transgenic mice. Cell 87, 493-506 (1996)) and their littermates as the WT control. In brief, the cortexes were carefully removed, digested with 0.05% trypsin-EDTA (Gibco, Grand Island, N.Y., USA) at 37° C. for 10 min, then mechanically dissociated by gentle pipetting and passed through a 70-μm-pore nylon mesh. […] Mutant Htt expression was measured by a mouse monoclonal anti-human Htt antibody (EM48) (1:200 dilution, Chemicon International, Temecula, Calif., USA). The purity of the primary astrocyte cultures was determined by immunocytochemical staining using an antibody against an astrocyte-specific marker (GFAP, dilution 1:1000; Sigma, St. Louis, Mo., USA) or a microglia-specific marker (anti-CD11b, dilution 1:200, Serotec, Oxford, UK). […]
Protein concentrations were determined using the Bio-Rad Protein Assay Dye Reagent Concentrate (Bio-Rad, Hercules, Calif., USA). […]
For the measurement of NO production, cells (5×10^5 cells/well) were treated with lipopolysaccharide (LPS, 0.5 μg/ml) in the presence of the desired drug for 72 hr. […] The absorbance at 540 nm was then monitored. […]

suppression of the cAMP response by A2A-R antagonist (A2A-R) | Compound | LPS-evoked NO production (BV2 cells) | LPS-evoked iNOS induction (BV2 cells) | lifespan of R6/2 mice (R6/2 mice [1]) | mean survival time (R6/2 mice [1]) [days] | body weight loss (Body weight of R6/2 mice) | protection of PC12 cells from apoptosis induced by serum withdrawal (cell viability, MTT) (PC12 cells) | progressive deterioration of motor coordination (rotarod performance) (R6/2 mice [2]) | intracellular cAMP level (A2A-R) | LPS-induced inflammation (iNOS expression and NO production) [3]
suppressed | Cn1c(=O)c2c(nc(/C=C/c3cccc(Cl)c3)n2C)n(C)c1=O [CSC, reference compound] | – | – | – | – | – | – | – | – | –
– | OCC1OC(n2cnc3c(NCc4ccc(O)cc4)ncnc32)C(O)C1O (stereo not shown) [T1-11, 2-(6-(4-hydroxybenzylamino)-9H-purin-9-yl)-5-(hydroxymethyl)tetrahydrofuran-3,4-diol] | reduces | reduces | elongated | 104.9 ± 5.2 | ameliorated | active; also recorded: much more potent than T1-C | markedly delayed | elevated | effectively suppressed
– | Oc1ccc(CSCc2ccc(O)cc2)cc1 [T1-C, 4,4′-dihydroxybenzyl sulfide] | – | – | elongated | 106.7 ± 4.6 | ameliorated | active | markedly delayed | elevated | –
